Results published in US9273057B2 (Bristol-Myers Squibb Company, priority 2012, dated 2016).

target: CK2A1 (CK2α/β) (Homo sapiens, UniProt P68400); assay: CK2 kinase assay, CK2A1 (CK2α/β); type: biochemical; details: Table A; read-out: CK2A1 (CK2α/β) (IC50)
Sequence (P68400 whole entry, species assumed): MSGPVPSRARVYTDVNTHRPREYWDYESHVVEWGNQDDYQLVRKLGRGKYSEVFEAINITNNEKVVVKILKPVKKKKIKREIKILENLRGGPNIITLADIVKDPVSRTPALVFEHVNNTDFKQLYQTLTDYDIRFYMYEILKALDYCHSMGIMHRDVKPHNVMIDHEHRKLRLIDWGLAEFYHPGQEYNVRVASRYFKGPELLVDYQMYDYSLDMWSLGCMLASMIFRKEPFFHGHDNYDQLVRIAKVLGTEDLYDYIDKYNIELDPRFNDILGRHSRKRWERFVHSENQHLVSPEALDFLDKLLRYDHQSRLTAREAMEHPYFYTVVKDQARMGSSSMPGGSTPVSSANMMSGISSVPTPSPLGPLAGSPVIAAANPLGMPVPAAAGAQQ
Sequence (P67870 whole entry partner, species assumed): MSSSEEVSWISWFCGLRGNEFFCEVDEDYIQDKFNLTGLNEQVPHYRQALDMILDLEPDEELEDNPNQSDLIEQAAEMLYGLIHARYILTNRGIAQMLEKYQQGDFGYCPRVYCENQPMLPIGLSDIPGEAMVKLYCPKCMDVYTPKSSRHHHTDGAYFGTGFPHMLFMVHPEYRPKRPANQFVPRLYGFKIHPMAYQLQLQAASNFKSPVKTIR

Row | SMILES | IC50 [nM]
1 | CC1(O)CN(C2CCN(c3cc(C#N)cc(Nc4nc(NC5CC5)c5ncc(C#N)n5n4)c3Cl)CC2)C1 [Example 111, 2-(2-chloro-5-cyano-3-(4-(3-hydroxy-3-methylazetidin-1-yl)piperidin-1-yl)phenylamino)-4-(cyclopropylamino)imidazo [1,2-f][1,2,4]triazine-7-carbonitrile] | 0.68
2 | N#Cc1cc(Nc2nc(NC3CC3)c3ncc(C#N)n3n2)c(Cl)c([C@H]2CCC[C@H](NC[C@H]3CCCO3)C2)c1 [Example 728, 2-({2-chloro-5-cyano-3-[(1S,3S)-3-{[(2R)-oxolan-2-ylmethyl]amino}cyclohexyl]phenyl}amino)-4-(cyclopropylamino)imidazo [2,1-f][1,2,4]triazine-7-carbonitrile] | 1.38
3 | CCNc1nc(Nc2ccc3c(c2)c(C#N)cn3C2CCN(C3CN(C(C)=O)C3)CC2)nn2c(C#N)cnc12 [Example 837, 2-((1-(1-(1-acetylazetidin-3-yl)piperidin-4-yl)-3-cyano-1H-indol-5-yl)amino)-4-(ethylamino)imidazo[2,1-f][1,2,4]triazine-7-carbonitrile] | 2.42

Results, then the compound that gave them:

Row | IC50 [nM] | SMILES
4 | 0.76 | CNCCOC(=O)N1CCN(c2cc(C#N)cc(Nc3nc(NC4CC4)c4ncc(C#N)n4n3)c2Cl)CC1 [Example 71, 2-(methylamino)ethyl 4-(2-chloro-5-cyano-3-((7-cyano-4-(cyclopropylamino)imidazo[2,1-f] [1,2,4]triazin-2-yl)amino)phenyl)-1-piperazinecarboxylate]
5 | 1.68 | CN1CCC(N2CC(c3cc(C#N)cc(Nc4nc(NC5CC5)c5ncc(C#N)n5n4)c3Cl)C2)CC1 [Example 357, 2-((2-chloro-5-cyano-3-(1-(1-methylpiperidin-4-yl)azetidin-3-yl)phenyl)amino)-4-(cyclopropylamino)imidazo[2,1-f][1,2,4]triazine-7-carbonitrile]
